Assay [1] concerns Cephalothinresistant E. coli and Kl. pneumoniae. Kind of assay: MIC, two-fold serial agar dilution in Mueller-Hinton agar, group (G-)-Ib. The following applies: read-out: Geometric Mean of MIC, (G-)-Ib. In kind it is cell-based, E. coli (3 strains) and Kl. pneumoniae (3 strains). As to the method:
(§1) In the primary evaluation of the compounds of this invention, the Minimum Inhibitory Concentrations (MIC's) of the compounds were determined by the two-fold serial agar dilution method in Mueller-Hinton agar against 32 strains of test organisms in six groups.
(G-)Ib: Cephalothinresistant E. coli (3 strains) and Kl. pneumoniae (3

Assay [2] relates to Penicillinresistant S. aureus. Kind of assay: MIC, two-fold serial agar dilution in Mueller-Hinton agar, group (G+)-Ib. The class given is cell-based. To be noted: Staphylococcus aureus, penicillin-resistant S. aureus, 5 strains, read-out: Geometric Mean of MIC, (G+)-Ib. The protocol:
as §1
(G+)Ib: Penicillinresistant S. aureus (5
(In agar dilution the substance is mixed into plates at graded concentrations.)

For assay [3], the system named is Penicillinsensitive S. aureus. Put plainly: MIC, two-fold serial agar dilution in Mueller-Hinton agar, group (G+)-Ia. The class given is cell-based. To be noted: Staphylococcus aureus, penicillin-sensitive S. aureus, 5 strains, read-out: Geometric Mean of MIC, (G+)-Ia. The protocol:
as §1

The test system of assay [4] is Cephalothinsensitive E. coli, Kl. pneumoniae and Pr. mirabilis. Put plainly: MIC, two-fold serial agar dilution in Mueller-Hinton agar, group (G-)-Ia. The class given is cell-based. The following applies: cephalothin-sensitive E. coli, 5 strains, read-out: Geometric Mean of MIC, (G-)-Ia. The protocol: as §1
(G-)Ia: Cephalothinsensitive E. coli (2 strains), Kl. pneumoniae (1
strain) and Pr. mirabilis (2 strains)

Assay [5] relates to M. morganii, Ent. cloacae and Ser. marcescens. Kind of assay: MIC, two-fold serial agar dilution in Mueller-Hinton agar, group (G-)-II. The following applies: 5 strains, read-out: Geometric Mean of MIC, (G-)-II. The class given is cell-based. As to the method:
as §1
(G-)II: M. morganii (1 strain), Ent. cloacae (2 strains) andSer.

A further assay deals with Ps. aeruginosa. Kind of assay: MIC, two-fold serial agar dilution in Mueller-Hinton agar, group (G-)-III. The class given is cell-based. The following applies: Pseudomonas aeruginosa, 7 strains, read-out: Geometric Mean of MIC, (G-)-III. As to the method: as §1
(G-)III: Ps. aeruginosa (7 strains)

Values after ≈ are worked out from the molar mass of the structure shown.

Broadly, the MIC is the lowest concentration found to suppress growth. For `CSc1scc[n+]1C/C=C/C1=C(C(=O)[O-])N2C(=O)C(NC(=O)/C(=N\OC(C)(C)C(=O)O)c3csc(N)n3)[C@H]2SC1` (stereo partly drawn) [Compound I-4G, 7-[(Z)-2-(2-Aminothiazol-4-yl)-2-(2-carboxy-2-propoxyimino)acetamido]-3-[(E)-3-(2-methylthio-3-thiazolio)-1-propen-1-yl]-3-cephem-4-carboxylate], the minimum inhibitory concentration (MIC) in assay [1] is 0.22 µg/mL (≈ 0.352 µM); in assay [2], 5.4 µg/mL (≈ 8.64 µM); in assay [3] it was 1.8 µg/mL (≈ 2.88 µM); in assay [4], 0.021 µg/mL (≈ 0.0336 µM); in assay [5] it was 0.2 µg/mL (≈ 0.32 µM); in the assay on Ps. aeruginosa, 3.5 µg/mL (≈ 5.6 µM).
For `Nc1cc[n+](C/C=C/C2=C(C(=O)[O-])N3C(=O)C(NC(=O)/C(=N\OC4(C(=O)O)CCC4)c4csc(N)n4)C3SC2)cc1` (stereo not drawn) [Compound I-5I, 7-[(Z)-2-(2-Aminothiazol-4-yl)-2-(1-carboxycyclobut-1-oxyimino)acetamido]-3-[(E)-3-(4-aminopyridino)-1-propen-1-yl]-3-cephem-4-carboxylate], the MIC in assay [1] is 0.2 µg/mL (≈ 0.334 µM); in assay [2], 4.7 µg/mL (≈ 7.84 µM); in assay [3], 1.6 µg/mL (≈ 2.67 µM); in assay [4], 0.019 µg/mL (≈ 0.0317 µM); in assay [5] it was 0.22 µg/mL (≈ 0.367 µM); in the assay with Ps. aeruginosa, 3.5 µg/mL (≈ 5.84 µM).
As to `CO/N=C(\C(=O)NC1C(=O)N2C(C(=O)[O-])=C(/C=C/C[n+]3ccccc3)CS[C@H]12)c1csc(N)n1` (stereo partly drawn) [Compound I-1B, 7-[(Z)-2-(2-Aminothiazol-4-yl)-2-methoxyiminoacetamido]-3-[(E)-3-pyridinio-1-propen-1-yl]-3-cephem-4-carboxylate], the MIC in assay [1] worked out at 0.05 µg/mL (≈ 0.0999 µM); in assay [2], 0.52 µg/mL (≈ 1.04 µM); in assay [3], 0.2 µg/mL (≈ 0.4 µM); in assay [4], 0.012 µg/mL (≈ 0.024 µM); in assay [5], 0.1 µg/mL (≈ 0.2 µM); in the assay with Ps. aeruginosa, 5.7 µg/mL (≈ 11.4 µM).
